{
  "source": "paper PMC3901242",
  "about": "“Determining Enzyme Kinetics for Systems Biology with Nuclear Magnetic Resonance Spectroscopy” (Metabolites, 2012)",
  "molecular_target": "T1, phosphofructokinase (PFK, EC 2.7.1.11) (Escherichia coli, UniProt P0A796)",
  "T1 construct": "gene pfkA; native enzyme in whole-cell extract of mid-log micro-aerobic cells (sonication or glass beads), not purified; PFK-1 tetrameric; minor PFK-2 (pfkB) may be present",
  "T1 sequence (P0A796 1-320)": "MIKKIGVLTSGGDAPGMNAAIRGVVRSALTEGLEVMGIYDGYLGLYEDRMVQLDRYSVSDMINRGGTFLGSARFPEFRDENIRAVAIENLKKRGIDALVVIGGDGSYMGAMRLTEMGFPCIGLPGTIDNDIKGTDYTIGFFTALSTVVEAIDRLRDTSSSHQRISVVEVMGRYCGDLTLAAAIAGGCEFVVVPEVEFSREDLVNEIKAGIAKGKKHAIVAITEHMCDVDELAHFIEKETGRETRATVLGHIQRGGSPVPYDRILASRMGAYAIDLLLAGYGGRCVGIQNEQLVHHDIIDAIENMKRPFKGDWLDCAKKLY",
  "experiment": "[…]-NMR progress curves, global fit to irreversible bi-substrate Hill equation with negative allosteric modifier",
  "type": "biochemical",
  "conditions": "allosteric inhibitor; co-substrates F6P and ATP; PEP 4 and 8 mM initial; 1 mM Mg2+; 100 mM PIPES pH 7.2, 25 °C; cell extract",
  "data": [
    {"smiles": "C=C(OP(=O)(O)O)C(=O)O", "note": "[PEP]", "values": [
      {"measurement": "Fitted parameters ^b", "result": "0.0863 ± 0.0001", "unit": "mM"}
    ]}
  ]
}
